According to US9783513B2, “STAT3 inhibitors and their anticancer use” (Ohio State Innovation Foundation, priority 2012, dated 2017):
Entries after “also recorded” stand apart in the source; their conditions may differ.

Legend:
[1] = target: T1, PLK3 (Homo sapiens, UniProt Q9H4B4); assay: Kinase screening (KINOMESCAN), PLK3; format: binding
T1 construct: purchased KINOMESCAN, San Diego, Calif
Procedure: The potential off-target activity of a representative compound was assessed in a screen against 96 protein and lipid kinases (see FIGS. 56 and 60). The test compound, LY-5, was assessed at 1000 and 5000 nM concentration using in vitro kinase assays. The assays were carried out using standard techniques known to one skilled in the art (KINOMESCAN™, San Diego, Calif.). The data in FIG. 60 show the % inhibition for the tested concentrations of LY-5 in the panel of kinases assessed. The interaction map provides a visualization of the relationship of these inhibition data from FIG. 60 to various kinase families.

[2] = target: STAT3 SH2 domain (Homo sapiens, UniProt P40763); assay: Fluorescence polarization (FP) assay; format: binding
Sequence of STAT3 SH2 domain (P40763 580-670 limits assumed): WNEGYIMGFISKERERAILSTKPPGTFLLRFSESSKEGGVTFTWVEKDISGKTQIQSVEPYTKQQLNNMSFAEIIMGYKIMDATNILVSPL
Procedure: Screening was performed at physiologically relevant temperature 37° C. Before each experiment, Compound LY-5 was prepared freshly from the stock solution. Compound LY-5 increased its background fluorescence reading at 595 nm at high concentrations, so the control solutions for each concentration were prepared by mixing buffer, LY-5, and fluorescence-labeled peptides together.
Screening was performed at approximately 37° C. STAT3 protein was used at 300 nM. The final concentration of buffer components used for all FP assays was 10 mM HEPES (pH 7.5), 1 mM EDTA, 0.1% Nonidet P-40, 50 mM NaCl, and 20% DMSO. Dithiothreitol was not added. LP-5 was diluted to a series of concentrations (1-200 μM) from a 20 mM stock in DMSO. Proteins were incubated with LP-5 in Eppendorf tubes at room temperature for 60 min prior addition of the 5-carboxyfluorescein labeled peptides. The final concentration of labeled peptide is 10 nM. The mixtures were transferred to a 384 Well Costar Black plate with each concentration repeated in three wells. The mixtures were equilibrated in the incubator at 37° C. for at least 30 min. The FP readings were measured and the experiments were repeated three times. Inhibition curves with standard deviation were fitted and Ki value was determined accordingly.

[3] = tested on: phosphorylated STAT3 (Tyr705); assay: Western blot, constitutive STAT3 phosphorylation; format: cell-based, human
[4] = tested on: STAT3 nuclear translocation; assay: Immunofluorescence assay, nuclear translocation; format: cell-based, human; conditions: SJSA; 1 or 2.5 μM; 4 h
Procedure: Cells seeded on glass slides in 6-well plate were cultured in serum-free medium for 24 hours. After the cell density reached about 80%, cells were pretreated with LY5 (1 or 2.5 μM) for 4 hours followed by IL-6 or IFN-γ (50 ng/ml), for 30 min, and were fixed with cold methanol for 15 min. After washing in phosphate-buffered saline (PBS), the slides were blocked with 5% normal goat serum and 0.3% Triton X-100 in PBS (PBST) for 1 hour. The slides were incubated with primary antibodies (1:100) against STAT3 or P-STAT1 proteins (Cell Signaling Technology) overnight at 4° C. Then, the slides were washed with PBST and incubated with goat anti-rabbit FIFC-conjugated secondary antibody (Invitrogen, 1:200). The cells were mounted with Vectashield Hardset mounting medium with DAPI (Vector Laboratories, Burlingame, Calif., USA). Photomicrographs were captured by Leica Microsystems (Bannockburn, Ill., USA).

[5] = tested on: HUVEC; assay: HUVEC tube formation assay; format: cell-based, human; conditions: 300 nM
Procedure: The Endothelial Tube Formation Assay (CBA200, Cell Biolabs Inc., San Diego, Calif., USA) was used in addition to the HUVEC proliferation assay. The ECM gel was thawed at 4° C. and mixed to homogeneity using cooled pipette tips. Cell culture plates (96-well) were bottom-coated with a thin layer of ECM gel (50 μl/well), which was left to polymerize at 37° C. for 60 min. HUVEC (2-3×10^4 cells) were stimulated with VEGF in 150 μl medium and added to each well on the solidified ECM gel. Culture medium was added to each well in the presence or absence of LY5. The plates were incubated at 37° C. for 12-18 hours and the endothelial tubes were quantified using a fluorescent microscope after staining with Calcein AM. Three microscope fields were selected at random and photographed. Tube forming ability was quantified by counting the total number of cell clusters and branches under a 4× objective and […] per well. The results are expressed as mean fold change of branching compared with the control groups. Each experiment was performed at least three times. The 3D in vitro angiogenesis assay was performed essentially as described by manufactures instructions (promo cell). […] The spheroids were photographed after 24 hours and sprout formation assessed as described.

[6] = tested on: HUVEC; assay: Matrigel invasion assay; format: cell-based, human; conditions: 300 nM
Procedure: The Matrigel invasion assays were carried out using Matrigel precoated inserts (BD Bioscience) following the manufacturer's instructions. Six hundred μl of M200 medium with or without VEGF (20 ng/ml, R&D Systems) was placed in the lower wells. Proliferating HUVECs (4×10^5 cells/ml) were pretreated with LY5 (300 nM) and 100 μl of cell suspension was loaded into each of the upper wells. The chambers were incubated for 18-20 hr at 37° C. After incubation, the inserts were removed, and the non-invading cells on the upper surface were removed with a cotton swab. The cells on the lower surface of the membrane were fixed in 100% methanol for 15 minutes, air-dried, and stained with Diff-Quik stain for 2 min. The cells were counted in six individual high-power fields for each membrane condition under a light microscope. Assays were performed in triplicate for each treatment group and the results were expressed as migrated cells per field for each condition.

T1 sequence (Q9H4B4 whole entry): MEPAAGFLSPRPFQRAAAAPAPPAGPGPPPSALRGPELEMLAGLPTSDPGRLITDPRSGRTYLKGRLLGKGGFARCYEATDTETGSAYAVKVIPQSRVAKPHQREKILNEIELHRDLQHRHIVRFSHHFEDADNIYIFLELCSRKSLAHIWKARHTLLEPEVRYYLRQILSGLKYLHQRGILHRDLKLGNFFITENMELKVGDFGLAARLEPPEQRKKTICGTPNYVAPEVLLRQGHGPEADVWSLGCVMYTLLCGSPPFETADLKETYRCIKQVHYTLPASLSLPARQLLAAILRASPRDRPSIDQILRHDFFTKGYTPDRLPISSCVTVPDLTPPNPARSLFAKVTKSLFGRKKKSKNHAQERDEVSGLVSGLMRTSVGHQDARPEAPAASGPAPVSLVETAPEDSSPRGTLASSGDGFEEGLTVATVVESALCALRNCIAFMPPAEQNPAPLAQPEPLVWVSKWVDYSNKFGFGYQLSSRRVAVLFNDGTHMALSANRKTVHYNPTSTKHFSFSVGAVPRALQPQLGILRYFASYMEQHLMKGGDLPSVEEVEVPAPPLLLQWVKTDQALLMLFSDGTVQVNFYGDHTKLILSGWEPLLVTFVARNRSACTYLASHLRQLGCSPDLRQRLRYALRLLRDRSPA

What does the source list for `NS(=O)(=O)c1cccc2c1C(=O)C=C(Nc1cccnc1)C2=O` [LY-5, 5,8-dioxo-6-(pyridin-3-ylamino)-5,8-dihydronaphthalene-1-sulfonamide]?
inhibition ([1]; at 1000 nM): no inhibition; activity against PLK3 ([1]; at 5 μM, FIG. 60): some activity; inhibition at 5 µM ([1]; at 5000 nM): 72%; binding to STAT3 SH2 protein ([2]; 37° C., FIG. 8): binds; Ki ([2]; 37° C., STAT3 300 nM, labeled peptide 10 nM): 2500 nM; experimental ΔG value ([2]; from FP Ki): -7.9 kcal/mol; constitutive STAT3 phosphorylation at Y705 ([3]; DAOY, UW288-1 and UW426, 0-5 μM, 2 h): decrease in STAT3 phosphorylation; constitutive STAT3 phosphorylation ([3]; EW8, 0.5-1 μM, 8 h): decrease in STAT3 phosphorylation; also recorded: dose-dependent decrease in formation of P-STAT3; P-STAT3 ([3]; FIG. 40, HeLa / OS-17 as printed, 0-5 μM, 2 h): decrease in STAT3 phosphorylation; constitutive STAT3 phosphorylation at Y705 ([3]; HCT-116, 0-5 μM, 2 h, vs LLL12): inhibits constitutive STAT3 phosphorylation at Y705 and is more potent than LLL12; P-STAT3 ([3]; OS-17, 0-5 μM, 2 h): decrease in STAT3 phosphorylation; P-STAT3 ([3]; RD2, 0-2.5 μM, 2 h, FIG. 58): decrease in STAT3 phosphorylation; constitutive STAT3 phosphorylation at Y705 ([3]; RH30, RD2 and EW8, 0-1 μM, 2 h): decrease in STAT3 phosphorylation; constitutive STAT3 phosphorylation at Y705 ([3]; RH30, 0-1 μM, 2 h, FIG. 57): decrease in STAT3 phosphorylation; STAT3 phosphorylation at Y705 and S727 ([3]; RH30, 5 μM in DMSO or ethanol, 2 h): decrease in STAT3 phosphorylation at Y705 and S727; concentration almost completely inhibiting Tyr705 phosphorylation ([3]; RH30, 16 h): 0.5 µM; constitutive STAT3 phosphorylation ([3]; RH30, LY-3 0.5-2.5 μM, LY-5 0.25-1 μM, 16 h): decrease in STAT3 phosphorylation; also recorded: reduced in a dose-dependent manner; P-STAT3 ([3]; RH30 and RD2, 0-2.5 μM, 2 h): decrease in STAT3 phosphorylation; constitutive STAT3 phosphorylation at Y705 ([3]; SW480, 0-5 μM, 2 h): decrease in STAT3 phosphorylation; constitutive STAT3 phosphorylation at Y705 ([3]; UW288-1 and UW426, 0-1 μM, 2 h): decrease in STAT3 phosphorylation; P-STAT3 ([3]; UW288-1 and UW426, 0-5 μM, 2 h, FIG. 38): decrease in STAT3 phosphorylation; IFN-γ induced STAT3 nuclear translocation [4]: does not inhibit; IL-6 induced STAT3 nuclear translocation [4]: inhibits; VEGF induced HUVEC tube formation [5]: inhibits; HUVECs invasion through Matrigel coated membranes [6]: prevented
